From paper PMC6523814, “Small-Molecule Host-Defense Peptide Mimetic Antibacterial and Antifungal Agents Activate Human and Mouse Mast Cells via Mas-Related GPCRs” (Cells, 2019)
Converted amounts (≈) assume the structure as drawn.

Key:
[1] = system: methicillin-resistant S. aureus (MRSA); parameters: method as in PMID 26501484; conditions: cited from earlier work
[2] = system: Candida albicans (ATCC GDH2346); assay: Fungus MIC assay (CLSI C27-A3); format: cell-based; conditions: RPMI/MOPS pH 7.0, 35 °C, 48 h; for MIC: Candida albicans
Description: (§1) Fungal strains included a clinical isolate of Candida albicans (ATCC GDH2346), Aspergillus fumigatus (ATCC MYA-3626), and Aspergillus flavus (ATCC 204304). Minimum inhibitory concentration (MIC) assays were carried out in 96-well plates using the Clinical and Laboratory Standards Institute (CLSI) method C27-A3 for C. albicans and M38-A2 for Aspergillus species. smHDPMs, each in stock solutions of 10 mM in DMSO, were diluted in 50 µL RPMI/MOPS pH 7.0 in a 96-well plate and 50 µL of diluted yeast were added to each well. […] The plate was then incubated at 35 °C for 48 h. […] All MIC assays were performed in duplicate.

[3] = system: Aspergillus flavus (ATCC 204304); assay: Fungus MIC assay (CLSI M38-A2); format: cell-based; conditions: RPMI/MOPS pH 7.0, 35 °C, 48 h; for MIC: Aspergillus flavus, ATCC204304
Description: as §1

[4] = system: Aspergillus fumigatus (ATCC MYA-3626); assay: Fungus MIC assay (CLSI M38-A2); format: cell-based; conditions: RPMI/MOPS pH 7.0, 35 °C, 48 h; for MIC: Aspergillus fumigatus
Description: as §1

[5] = Cytotoxicity, MTS viability assay; format: cell-based, mouse; conditions: mouse, 3T3 fibroblasts (ATCC CRL-1658); 1 h exposure in serum-free medium, MTS
Description: (§2) Cytotoxicity (50% […] concentration, CC50) was determined against mouse 3T3 fibroblasts (ATCC CRL-1658) and human transformed liver HepG2 cells (ATCC HB-8065) using an MTS viability assay according to the manufacturer’s protocol (Promega CellTiter 96 aqueous nonradioactive cell proliferation assay). Briefly, 3T3 cells were seeded at 2 × 10^4 cells/well in Dulbecco’s modified Eagle’s medium (DMEM) supplemented with 10% bovine calf serum and HepG2 cells were seeded at 3 × 10^4 cells/well in MEM supplemented with 10% fetal bovine serum. After 24 h of growth, the culture medium was replaced with medium lacking serum, and eight two-folds dilutions of each of the five compounds were added. […] Following incubation for 1 h at 37 °C, compound solutions were removed and medium containing serum was replenished. Viability was determined by addition of the tetrazolium compound, MTS, and the electron coupling agent, PMS, and then incubation at 37 °C for 2 h (3T3 cells) or 3 h (HepG2 cells) followed by absorbance measurements at 490 nm. The CC50 was calculated using GraphPad Prism software (nonlinear fit).

[6] = system: mouse 3T3 fibroblasts (ATCC CRL-1658); assay: Cytotoxicity, MTS viability assay; format: cell-based; conditions: for fold less cytotoxic than Compound 2: CC50 in 3T3 and HepG2 cells relative to Compound 2
Description: as §2

[7] = Cytotoxicity, MTS viability assay; format: cell-based, human; conditions: human, HepG2 cells (ATCC HB-8065); 1 h exposure in serum-free medium, MTS
Description: as §2

[8] = system: human transformed liver HepG2 cells (ATCC HB-8065); assay: Cytotoxicity, MTS viability assay; format: cell-based
Description: as §2

MRGPRX2 = target: T1, MRGPRX2 (Homo sapiens, UniProt Q96LB1); assay: Degranulation (β-hexosaminidase release) in RBL-2H3 cells expressing MRGPRX2; format: cell-based; conditions: for EC50: RBL-2H3 cells stably expressing MRGPRX2, 30 min; for percentage degranulation (β-hexosaminidase release): 3 µM, 30 min, RBL-2H3 cells stably expressing MRGPRX2
T1 construct: HA (hemagglutinin)
T1 sequence (Q96LB1 1-330): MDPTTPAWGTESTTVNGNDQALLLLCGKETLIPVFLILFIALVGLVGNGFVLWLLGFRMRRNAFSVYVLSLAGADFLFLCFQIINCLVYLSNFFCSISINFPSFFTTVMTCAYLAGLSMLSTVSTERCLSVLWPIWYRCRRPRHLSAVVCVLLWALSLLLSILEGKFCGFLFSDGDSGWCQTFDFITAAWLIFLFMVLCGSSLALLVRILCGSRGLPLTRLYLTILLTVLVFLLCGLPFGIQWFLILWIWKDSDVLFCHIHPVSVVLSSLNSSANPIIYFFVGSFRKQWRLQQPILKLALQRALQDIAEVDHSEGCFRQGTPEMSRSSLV
Description: The human mast cell line, LAD2, was maintained in complete StemPro-34 medium supplemented with L-glutamine (2 mM), penicillin (100 IU/mL), streptomycin (100 μg/mL), and 100 ng/mL recombinant human stem cell factor (rhSCF). Hemidepletions were performed weekly with media containing rhSCF (100 ng/mL). Rat basophilic leukemia (RBL-2H3) cells were maintained as monolayer cultures in DMEM supplemented with 10% FBS, L-glutamine (2 mM), penicillin (100 IU/mL), and streptomycin (100 μg/mL). Peritoneal mast cells (PMCs) were obtained from 6–8 weeks old C57BL/6 and Mrgprb2^-/- (C57BL/6 background) mice using i.p. injection of 8 mL MC disassociation medium that was made of HBSS with 3% FCS and 10 mM HEPES. The cells were cultured in Iscove’s Modified Dulbecco’s Medium (IMDM) supplemented with 10% FCS, murine IL-3 (10 ng/mL), and murine SCF (30 ng/mL). After 48 h, the medium and the suspended cells were removed and replaced with fresh medium containing murine IL-3 (10 ng/mL) and murine SCF (30 ng/mL). The floating cells were then used for the experiment within 2–3 weeks. Bone-marrow-derived mast cells (BMMCs) were harvested by flushing bone marrow cells from the femurs of C57BL/6 mice and culturing the cells for 4–8 weeks in IMDM supplemented with 10% FCS, murine IL-3 (10 ng/mL). The cells were then used within 4–8 weeks.
Cells (2 ×10^6) were transfected with plasmids (2 µg/µL) encoding MRGPRX2 or MRGPRX2 missense mutants using the Amaxa kit V using Amaxa Nucleofector device according to the manufacturer’s protocol. For stable transfection, cells were cultured in the presence of G-418 (1 mg/mL) and used within one month of transfection. For transient transfection, cells were used within 16–20 h after transfection. To detect MRGPRX2 expression, cells (1 × 10^6) were incubated with the PE-conjugated anti-MRGPRX2 antibody, washed in FACS buffer, fixed, and analyzed on a BD LSR II flow cytometer.
RBL-2H3 cells (5 × 10^4), LAD2 cells (10 × 10^4), and PMCs (5 × 10^3), BMMCs (5 × 10^4), were seeded into 96-well plates in a total volume of 50 μl HEPES buffer containing 0.1% bovine serum albumin (BSA) and exposed to ligands for 30 min. Cells without treatment were designated as control. In some experiments, cells were treated with Pertussis toxin (PTx). For total β-hexosaminidase release, unstimulated cells were lysed in 50 μl of 0.1% Triton X-100. Aliquots (20 μl) of supernatants or cell lysates were incubated with 20 μl of 1 mM p-nitrophenyl-N-acetyl-β- D-glucosamine for 1 h at 37 °C. The reaction was stopped by adding 250 μl of a 0.1 M Na2CO3/0.1 M NaHCO3 buffer and absorbance was measured at 405 nm.

[9] = system: Enterococcus faecalis [ATCC 29212]; assay: Bacterial MIC assay (Hancock modified broth assay); format: cell-based; conditions: ATCC29212, cation-adjusted Mueller–Hinton, 18 h
Description: (§3) were tested for antibacterial activities against three Gram-negative bacteria (Escherichia coli [ATCC 25922], Pseudomonas aeruginosa [ATCC 10145], and Klebsiella pneumonia [ATCC 13883]) and two Gram-positive bacteria (Staphylococcus aureus [ATCC 27660] and Enterococcus faecalis [ATCC 29212]) using the Hancock modified broth assay. Three milliliters cation-adjusted Mueller-Hinton medium was inoculated with 20 μL of frozen bacterial stock and incubated at 37 °C on a shaker platform (250 rpm) overnight. […] All samples were done in duplicate. One set of control wells included broth-only samples with dilution buffer for testing sterility and providing blank values for the assay readings. Vehicle-control wells containing the bacterial suspension with DMSO (no compound) were also included. Following the overnight incubation (18 h), the cell growth was assessed by observing the presence of “acceptable growth”, defined by CLSI as a ≥2 mm button or definite turbidity. MIC was defined as the lowest concentration where acceptable growth is not observed.

[10] = system: Escherichia coli [ATCC 25922]; assay: Bacterial MIC assay (Hancock modified broth assay); format: cell-based; conditions: cation-adjusted Mueller–Hinton, 18 h; for MIC: Escherichia coli, ATCC25922
Description: as §3

[11] = system: Klebsiella pneumonia [ATCC 13883]; assay: Bacterial MIC assay (Hancock modified broth assay); format: cell-based; conditions: Klebsiella pneumoniae, ATCC13883; cation-adjusted Mueller–Hinton, 18 h
Description: as §3

[12] = system: Pseudomonas aeruginosa [ATCC 10145]; assay: Bacterial MIC assay (Hancock modified broth assay); format: cell-based; conditions: ATCC10145, cation-adjusted Mueller–Hinton, 18 h
Description: as §3

[13] = system: Staphylococcus aureus [ATCC 27660]; assay: Bacterial MIC assay (Hancock modified broth assay); format: cell-based; conditions: cation-adjusted Mueller–Hinton, 18 h; for MIC: Staphylococcus aureus, ATCC27660
Description: as §3

Compound	MIC [2] [µg/mL]	MIC [3] [µg/mL]	MIC [4] [µg/mL]	MIC A. fumigatus [4] [µg/mL]	CC50 at 1 h [5] [µM]	cytotoxic effects on 3T3 cells at concentrations relevant for antifungal activity [6]	CC50 at 1 h [7] [µM]	cytotoxic effects on HepG2 cells at concentrations relevant for antifungal activity [8]	EC50 (MRGPRX2) [µM]	MIC C. albicans [2] [µg/mL]	MIC A. flavus [3] [µg/mL]	MIC [9] [µg/mL]	MIC [10] [µg/mL]	MIC [11] [µg/mL]	MIC [12] [µg/mL]	MIC [13] [µg/mL]	fold less cytotoxic than Compound 2 [6]	percentage degranulation (β-hexosaminidase release) (MRGPRX2)	further results
N=C(N)NCCCCC(=O)Nc1cc(C(F)(F)F)cc(NC(=O)c2cc(C(=O)Nc3cc(C(F)(F)F)cc(NC(=O)CCCCNC(=N)N)c3O[C@@H]3CCNC3)ncn2)c1O[C@@H]1CCNC1 [Brilacidin]																			efficacy in rabbit model of MRSA-induced keratitis [1]: displays efficacy
Cc1cc(C#CCNC(=N)N)ccc1-c1nnc(-c2ccc(C#CCNC(=N)N)cc2)o1 [Compound 1]	0.78 to 1.56 (≈ 1.83 to 3.66 µM)	6.25 (≈ 14.7 µM)	12.5 to 50 (≈ 29.3 to 117 µM)	12.5 to 50	209	little to no cytotoxic effects	257	little to no cytotoxic effects	0.8										
N=C(N)N1CC=C(c2ccc(-c3nnc(-c4ccc(C5=CCN(C(=N)N)CC5)cc4)o3)cc2)CC1 [Compound 2]	0.39 (≈ 0.832 µM)	0.39 (≈ 0.832 µM)	0.39 (≈ 0.832 µM)	0.39 (≈ 0.832 µM)	124	little to no cytotoxic effects	151	little to no cytotoxic effects	3	0.39 (≈ 0.832 µM)	0.39 (≈ 0.832 µM)	> 100	3.1 (≈ 6.62 µM)	> 100	> 100	0.1 (≈ 0.213 µM)			Bacterial MIC Escherichia coli [10]: 3.1 µg/mL; Bacterial MIC Staphylococcus aureus [13]: 0.1 µg/mL
C1=C(c2ccc(-c3cn(-c4ccc(C5=CCNCC5)cc4)nn3)cc2)CCNC1 [Compound 3]	> 100	> 100	> 100	> 100	60		111		1.8	> 100	> 100								
Cc1c(-c2ccc(N3CCNCC3)cc2)ncnc1-c1ccc(N2CCNCC2)cc1 [Compound 4]	> 100	> 100	> 100		883		> 1560		0.4			> 100	> 100	> 100	> 100	> 100	2–10 fold	20–25%	
c1cc(-c2ccc(N3CCNCC3)cc2)cc(-c2ccc(N3CCNCC3)cc2)n1 [Compound 5]	> 100	> 100	> 100		200		447		0.38			> 100	> 100	> 100	> 100	> 100	2–10 fold	20–25%	
